“Also recorded” adds a separate entry of the source.
How the values were obtained:
[1] = tested on: CXCR4 mutant-expressing cells; details: cited from earlier work
[2] = tested on: mitochondrial cytotoxicity; details: cited from earlier work
[3] = tested on: CXCR7; design: method as in PMID 25921529; details: cited from earlier work
[4] = tested on: WM cells; test: Transwell migration of WM cells, general statement; type: cell-based; details: 10 nM CXCL12, 2 h, 37 °C; non-specific migration 3,4%; CellTiter-Glo
Method: 10 nM CXCL12 was supplemented to the lower chamber. After 2 h incubation at 37 °C, 5% CO2, cells that had migrated to the lower compartment were analyzed using the CellTiter-Glo Luminescent Cell Viability Assay (Promega, Madison, WI, USA) according to the manufacturer’s instructions. Percentage of specific migration was calculated using the following formula: % migration = ((specific migration-unspecific migration)/total cells) × 100. The average of absolute percentage of non-specific migration was very low in some experiments with 3,4% compared to an average of 81% CXCL12 induced migration.

[5] = tested on: ERK1 (Tyr204)/ERK2 (Tyr187) phosphorylation, CXCR4 transduced BCWM.1 cells; test: ERK phosphorylation by flow cytometry, CXCR4-transduced BCWM.1 cells; type: cell-based; details: wild-type or mutated CXCR4 or empty vector control; Figure S5B
Method: Cells (100,000) were seeded in 100 µL starvation medium (RPMI, 1% FCS) and starved for 2 h. 5 µL compound in PBS was added and cells were further incubated for 15 min. Afterwards, 5 µL CXCL12 (100 ng/mL final concentration on cells) was added for 2 min before the reaction was stopped by adding PFA and shifting to 4 °C. After 15 min, medium was removed by centrifugation and cells permeabilized by adding ice cold MetOH for 15 min. Cells were then washed and the first antibody was added (phospho-p44/42 MAPK (Erk1) (Tyr204)/(Erk2) (Tyr187) (D1H6G) mouse mAb (Cell Signaling, Danvers, Massachusetts, USA, #5726) and phospho-Akt (Ser473) (193H12) rabbit mAb (Cell Signaling, #4058)) for 2 h and stained with adequate secondary antibody afterwards. Cells were analyzed by flow cytometry with FACS Cytoflex (Beckman Coulter, Brea, CA, USA). For time-kinetic experiments, fold-stimulation was determined by MFI (stimulated)/MFI (unstimulated) for each time point. For inhibition experiments, MFI from unstimulated cells was subtracted from each point and signal of stimulated cells without inhibitor normalized to 100%.

Compound | Abrogation of CXCL12 rescue from ibrutinib-induced apoptosis [1] | Mitochondrial cytotoxicity [2] | Interaction with CXCR7 [3] | CXCL12 induced migration, average [4] [%] | CXCL12 effect on phosphorylation / MAPK signaling [5]
c1cc(CN2CCCNCCNCCCNCC2)ccc1CN1CCCNCCNCCCNCC1 [AMD3100] | the effect could be abrogated by adding plerixafor | do not exert mitochondrial cytotoxicity, in contrast to AMD3100 | acts as an allosteric agonist of this receptor | – | –
CXCL12: chemokine ligand CXCL12 | – | – | – | 81 | increased upon CXCL12 stimulation; also recorded: increases MAPK signaling in cells expressing CXCR4 wildtype constitutively to the same extent as in CXCR4-mutant cells

— publication PMC7920274, “Targeting of CXCR4 by the Naturally Occurring CXCR4 Antagonist EPI-X4 in Waldenström’s Macroglobulinemia” (Cancers, 2021)
